Reference: ChEMBL document CHEMBL6083247, “Discovery of sulfone containing metallo-β-lactamase inhibitors with reduced bacterial cell efflux and histamine release issues” (Bioorg Med Chem Lett, 2024)
pIC50: −log10 of the molar value. One block for each compound: values may come before it.

Tests used:
[1] = target: Metallo-beta-lactamase type 2 (Bacteria, UniProt C7C422); test: Inhibition of Metallo-beta-lactamase NDM-1 (unknown origin)
[2] = Inhibition of Metallo-beta-lactamase IMP-1 (unknown origin); set-up: species or system Bacteria
[3] = Inhibition of Metallo-beta-lactamase VIM-1 (unknown origin); set-up: species or system Bacteria
[4] = tested on: Escherichia coli; test: Antibacterial activity against NDM-1 expressing Escherichia coli CLB30016 assessed as inhibition of bacterial growth in presence of IMI by absorbance based assay; assay type: functional
[5] = tested on: Serratia marcescens; test: Antibacterial activity against IMP-1 expressing Serratia marcescens CL5741 assessed as inhibition of bacterial growth in presence of IMI by absorbance based assay; assay type: functional
[6] = tested on: Klebsiella pneumoniae; test: Antibacterial activity against VIM-1 expressing Klebsiella pneumoniae IHMA599644 assessed as inhibition of bacterial growth in presence of IMI by absorbance based assay; assay type: functional
[7] = Inhibition of Metallo-beta-lactamase VIM-2 (unknown origin); set-up: species or system Bacteria
[8] = tested on: Pseudomonas aeruginosa; test: Antibacterial activity against wildtype isogenic efflux/IMP-1 expressing Pseudomonas aeruginosa MB9798 assessed as inhibition of bacterial growth in presence of IMI by absorbance based assay; assay type: functional
[9] = tested on: Pseudomonas aeruginosa; test: Antibacterial activity against mutant isogenic efflux/IMP-1 expressing Pseudomonas aeruginosa MB9799 assessed as inhibition of bacterial growth in presence of IMI by absorbance based assay; assay type: functional
[10] = Efflux ratio of MITC95 for antibacterial activity against wildtype isogenic efflux/IMP-1 expressing Pseudomonas aeruginosa MB9798 assessed as inhibition of bacterial growth in presence of IMI to MITC95 for antibacterial activity against mutant isogenic efflux/IMP-1 expressing Pseudomonas aeruginosa MB9799 assessed as inhibition of bacterial growth in presence of IMI; assay type: functional
[11] = Cmax in rat at 30 mg/kg, iv; assay type: ADME, organism-based; conditions: in vivo
[12] = Toxicity in cardiovascular rat model assessed as increase in histamine release in plasma at 30 mg/kg, iv; assay type: organism-based; conditions: in vivo
[13] = Toxicity in rat assessed as emesis at 1 mg/kg, iv; assay type: organism-based; conditions: in vivo
[14] = Toxicity in rat assessed as watery eyes at 1 mg/kg, iv; assay type: organism-based; conditions: in vivo
[15] = Toxicity in rat assessed as anaphylaxis at 1 mg/kg, iv; assay type: organism-based; conditions: in vivo
[16] = Toxicity in dog assessed as emesis at 1 mg/kg; assay type: organism-based, Canis lupus familiaris; conditions: in vivo
[17] = Toxicity in dog assessed as watery eyes at 1 mg/kg; assay type: organism-based, Canis lupus familiaris; conditions: in vivo
[18] = Toxicity in dog assessed as anaphylaxis at 1 mg/kg; assay type: organism-based, Canis lupus familiaris; conditions: in vivo
[19] = Toxicity in rat mast cells assessed as degranulation by measuring histamine release at >=300 microM; assay type: cell-based; conditions: mast cell
[20] = Toxicity in cardiovascular rat model assessed as decrease in blood pressure at 3 mg/kg,iv for 20 mins followed by 10 mg/kg, iv dose for next 20 mins and measured after 20 mins of iv dose with 30 mg/kg; assay type: organism-based; conditions: in vivo, 1 h, time 60 min
[21] = Toxicity in cardiovascular rat model assessed as increase in histamine release in plasma at 3 mg/kg,iv for 20 mins followed by 10 mg/kg, iv dose for next 20 mins and measured after 20 mins of iv dose with 30 mg/kg; assay type: organism-based; conditions: in vivo, 1 h, time 60 min
[22] = Cmax in rat at 5 mg/kg, iv; assay type: ADME, organism-based; conditions: in vivo
[23] = Toxicity in cardiovascular rat model assessed as increase in histamine release in plasma at 5 mg/kg, iv measured after >8 mins; assay type: organism-based; conditions: in vivo
[24] = Toxicity in rat mast cells assessed as degranulation by measuring histamine release at >=33 microM; assay type: cell-based; conditions: mast cell

Metallo-beta-lactamase type 2, sequence (C7C422 whole entry): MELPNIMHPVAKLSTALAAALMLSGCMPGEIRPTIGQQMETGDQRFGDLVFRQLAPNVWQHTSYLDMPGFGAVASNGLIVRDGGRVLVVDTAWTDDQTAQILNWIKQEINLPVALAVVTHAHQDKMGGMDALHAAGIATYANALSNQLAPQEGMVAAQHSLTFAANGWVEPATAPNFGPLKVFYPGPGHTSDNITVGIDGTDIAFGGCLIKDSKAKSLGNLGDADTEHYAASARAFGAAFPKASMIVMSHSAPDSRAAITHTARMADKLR

- pIC50 [1]: 8.43
- pIC50 [2]: 7.19
- pIC50 [3]: 7.24
SMILES: Cc1ccc(-c2cccc(S(N)(=O)=O)c2-c2nnn[nH]2)cc1
- MITC95 [4]: 1.5 µM
- MITC95 [5]: 14 µM
- MITC95 [6]: 127 µM

SMILES: NS(=O)(=O)c1c(CC2CCNCC2)ccc(-c2ccc(C3CCNCC3)cc2)c1-c1nn[nH]n1
- pIC50 [1]: 7.96
- pIC50 [2]: 7.62
- pIC50 [3]: 8.30
- pIC50 [7]: 5.91
- MITC95 [4]: 2 µM
- MITC95 [5]: 3.9 µM
- MITC95 [6]: 2.3 µM
- MITC95 [8]: 4.4 µM
- MITC95 [9]: 0.8 µM
- Ratio [10]: 6
- Cmax [11]: 459 µM
- Activity [12]: Toxic
- Activity [13]: Toxic
- Activity [14]: Toxic
- Activity [15]: Toxic
- Activity [16]: Toxic
- Activity [17]: Toxic
- Activity [18]: Toxic
- Activity [19]: Toxic
- Activity [20]: Toxic
- Activity [21]: Toxic

- Cmax [22]: 45 µM
SMILES: NS(=O)(=O)c1c(CC2CNC2)ccc(-c2ccc(C3CCNCC3)cc2)c1-c1nn[nH]n1
- Activity [23]: Toxic
- Activity [24]: Toxic

SMILES: NS(=O)(=O)c1cccc(-c2ccc(C3CCNCC3)cc2)c1-c1nn[nH]n1
- pIC50 [2]: 7.47
- pIC50 [3]: 7.72
- MITC95 [4]: 3 µM
- MITC95 [5]: 9 µM
- MITC95 [6]: 38 µM
- MITC95 [8]: 200 µM
- MITC95 [9]: 1.56 µM
- Ratio [10]: 128

SMILES: NS(=O)(=O)c1c(C(F)(F)F)ccc(-c2ccc(C3CCNCC3)cc2)c1-c1nn[nH]n1
- pIC50 [1]: 9.05
- pIC50 [2]: 8.92
- pIC50 [3]: 9.52
- MITC95 [4]: 0.7 µM
- MITC95 [5]: 0.2 µM
- MITC95 [6]: 1.9 µM
- MITC95 [8]: 50 µM
- MITC95 [9]: 0.78 µM
- Ratio [10]: 64

SMILES: NCCS(=O)(=O)c1ccc(-c2ccc(C3CCNCC3)cc2)c(-c2nn[nH]n2)c1S(N)(=O)=O
- pIC50 [2]: 9.77
- pIC50 [3]: 9.70
- MITC95 [4]: 1.56 µM
- MITC95 [5]: 1.56 µM
- MITC95 [6]: 3.13 µM
- MITC95 [9]: 0.78 µM
- Ratio [10]: 2

SMILES: NS(=O)(=O)c1c(SC2CCNCC2)ccc(-c2ccc(C3CCNCC3)cc2)c1-c1nnn[nH]1
- pIC50 [2]: 7.45
- pIC50 [3]: 7.31
- MITC95 [4]: 1.56 µM
- MITC95 [5]: 3.13 µM
- MITC95 [6]: 6.25 µM
- MITC95 [8]: 25 µM
- MITC95 [9]: 0.78 µM
- Ratio [10]: 32
